Columns and labels:
[1] = system: ovariectomized (OVX) rats; experiment: OVX rat study: in vivo DXA densitometry of lumbar spine and humerus; design: species or system Wistar rats; settings: 12 weeks, versus OVX control
Description: (§1) A total of 264 Wistar female rats, ˜6 months old, were supplied by the Animal House at King Fahd Medical Research Center (KFMRC), KAU. Rats were housed in individual cages and maintained at 22° C. with a 12-h light/dark cycle. During the study period, rats were given standard rodent chow diet ad libitum (commercial rat cubes containing approximately 18% protein, 3% fat, 77% carbohydrate, and 2% of an inorganic-salt mixture with a vitamin supplement by weight, supplied by Grain Silos and Flour Mills Organization, Jeddah, Saudi Arabia) and water until the onset of intervention. Prior to surgery, rats were anesthetized with ketamine [(10% ketamine hydrochloride (80 mg/kg body weight), Cayman Chemical, Michigan, USA] and xylazine [(2% xylazine hydrochloride, 10 mg/kg body weight), Sigma-Aldrich Co., St. Louis, USA]. A single longitudinal skin incision was made on the dorsal midline at the level of the kidneys and both ovaries were ligated and removed to produce an ovariectomy in all OVX group animals. A SHAM-operated group, acting as a negative control for the effect of ovariectomy on bone parameters, underwent bilateral laparotomy, during which the ovaries were exposed but remained intact. […] Peripheral Quantitative CT (pQCT) scans were made of the proximal tibia metaphysis and the diaphysis. […]

[2] = system: ovariectomized (OVX) rats; experiment: OVX rat study: in vivo pQCT densitometry of tibia metaphysis; design: species or system Wistar rats; settings: 12 weeks, versus OVX control, P<0.001
Description: as §1

[3] = system: ovariectomized (OVX) rats; experiment: OVX rat study: ex vivo pQCT and biomechanical testing of lumbar spine and femur; assay type: in vivo, Wistar rats; settings: 12 weeks
Description: A total of 264 Wistar female rats, ˜6 months old, were supplied by the Animal House at King Fahd Medical Research Center (KFMRC), KAU. Rats were housed in individual cages and maintained at 22° C. with a 12-h light/dark cycle. During the study period, rats were given standard rodent chow diet ad libitum (commercial rat cubes containing approximately 18% protein, 3% fat, 77% carbohydrate, and 2% of an inorganic-salt mixture with a vitamin supplement by weight, supplied by Grain Silos and Flour Mills Organization, Jeddah, Saudi Arabia) and water until the onset of intervention. Prior to surgery, rats were anesthetized with ketamine [(10% ketamine hydrochloride (80 mg/kg body weight), Cayman Chemical, Michigan, USA] and xylazine [(2% xylazine hydrochloride, 10 mg/kg body weight), Sigma-Aldrich Co., St. Louis, USA]. A single longitudinal skin incision was made on the dorsal midline at the level of the kidneys and both ovaries were ligated and removed to produce an ovariectomy in all OVX group animals. A SHAM-operated group, acting as a negative control for the effect of ovariectomy on bone parameters, underwent bilateral laparotomy, during which the ovaries were exposed but remained intact. […] The lycopene-supplemented groups were given lycopene (15, 30 and 45 mg/kg body weight per day) dissolved in corn oil by daily intra-gastric administration for the experimental period of 12 weeks. The SHAM, OVX and ALN control groups were given the same volume of corn oil without lycopene treatment. […] A 12-week randomized placebo-controlled study in order to examine the protective effects of lycopene supplementation on bone mass and fragility in OVX rats was concluded. Prior to surgery, body weight and bone mineral density (BMD) were obtained for all animals. Rats were randomized using a computer-generated randomization code into one of six groups: (1) sham-operated (SHAM; n=44); (2) ovariectomized control (OVX; n=44); (3) OVX lycopene-supplemented (15 mg/kg body weight per day) (n=44); (4) OVX lycopene-supplemented (30 mg/kg body weight per day) (n=44); (5) OVX lycopene-supplemented (45 mg/kg body weight per day) (n=44) and (6) OVX alendronate-treated (ALN) [2.0 μg/kg body weight per day subcutaneously (sc)] (n=44). Alendronate is an anti-resorptive agent for the treatment of osteoporosis and was used as a positive therapy control. […] All OVX groups were pair-fed with the SHAM group throughout the study to avoid the possible effects of ovariectomy-induced over-consumption and subsequent excessive weight gain. Treatment started 1 week after the surgery: this period of rest allowed the rats to recover from the stress associated with the surgery. In addition, after surgery, rats were administered Diclofenac sodium injection (20 mg/Kg body weight) to reduce the pain associated with the surgery. Rats were weighed and examined daily. Blood and urine samples were collected at baseline, during, and at the end of treatment for measurement of various BTMs and other analytes. In vivo dual energy x-ray absorptiometry (DXA) measurements were made for the bone mineral content (BMC) and BMD of the whole body, lumbar spine (L1-L4), and the right humerus, together with body composition at 12 weeks of treatment. […] Peripheral Quantitative CT (pQCT) scans were made of the proximal tibia metaphysis and the diaphysis. […]

CC(C)=CCC/C(C)=C/C=C/C(C)=C/C=C/C(C)=C/C=C/C=C(C)/C=C/C=C(C)/C=C/C=C(\C)CCC=C(C)C [lycopene]
OVX-induced bone loss (BMC and BMD, lumbar spine and humerus, DXA) [1]: significantly prevented | OVX-induced bone loss (total and trabecular BMD, proximal tibia, pQCT) [2]: significantly prevented | OVX-induced decrease in cortical thickness ([3]; lycopene particularly 45 mg/kg/day, alendronate 2.0 μg/kg/day): prevented the decrease | lumbar spine biomechanical / bone strength parameters ([3]; lycopene particularly 30 and 45 mg/kg/day, ALN 2.0 μg/kg/day, P<0.05): improved | effects of OVX on bone strength parameters in the femur diaphysis ([3]; lycopene, values comparable to SHAM): prevented the negative effects
